From the supplement of paper PMC10307832

Legend:
Assay in all cases: relative viability (nuclei count vs DMSO), 5 days (fraction); higher = more cells survive
Decitabine + Crizotinib = compound: Nc1ncn([C@H]2C[C@H](O)[C@@H](CO)O2)c(=O)n1 [Decitabine] + C[C@@H](Oc1cc(-c2cnn(C3CCNCC3)c2)cnc1N)c1c(Cl)ccc(F)c1Cl [Crizotinib] (partner 1 µM)
In short: (§1)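 Lung cancer cell lines were pin-tool dosed in 1536-well plates on the day after seeding, with either a lone drug or a fixed anchor-drug dose plus five library-drug doses (not always all listed) in √10 steps. Nuclei were counted on 4× images after 5 days. Relative viability is the ratio of treated-well to vehicle-well nuclei counts, with each value a median of duplicate plates.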

[1] = compound: O=C(C[C@H]1NCCC[C@@H]1O)Cn1cnc2cc(Br)c(Cl)cc2c1=O (racemic) [Halofuginone] + O=C(CCCCCCC(=O)Nc1ccccc1)NO [Vorinostat] (partner 1 µM)
In short: as §1

[2] = compound: O=C(C[C@H]1NCCC[C@@H]1O)Cn1cnc2cc(Br)c(Cl)cc2c1=O (racemic) [Halofuginone] + CC1(C)CCC(c2ccc(Cl)cc2)=C(CN2CCN(c3ccc(C(=O)NS(=O)(=O)c4ccc(N[C@H](CCN5CCOCC5)CSc5ccccc5)c(S(=O)(=O)C(F)(F)F)c4)cc3)CC2)C1 [Navitoclax] (partner 0.5 µM)
In short: as §1

Decitabine + Tozasertib = compound: Nc1ncn([C@H]2C[C@H](O)[C@@H](CO)O2)c(=O)n1 [Decitabine] + Cc1cc(Nc2cc(N3CCN(C)CC3)nc(Sc3ccc(NC(=O)C4CC4)cc3)n2)n[nH]1 [Tozasertib] (partner 0.1 µM)
In short: as §1

| Cell Line | relative viability (Decitabine + Crizotinib; first compound 0.04 µM) | relative viability (Decitabine + Crizotinib; first compound 0.1265 µM) | relative viability (Decitabine + Crizotinib; first compound 0.4 µM) | relative viability (Decitabine + Crizotinib; first compound 1.265 µM) | relative viability (Decitabine + Crizotinib; first compound 4 µM) | relative viability ([1]; first compound 0.001 µM) | relative viability ([1]; first compound 0.003162 µM) | relative viability ([1]; first compound 0.01 µM) | relative viability ([1]; first compound 0.03162 µM) | relative viability ([1]; first compound 0.1 µM) | relative viability ([2]; first compound 0.001 µM) | relative viability ([2]; first compound 0.003162 µM) | relative viability ([2]; first compound 0.01 µM) | relative viability ([2]; first compound 0.03162 µM) | relative viability ([2]; first compound 0.1 µM) | relative viability (Decitabine + Tozasertib; first compound 0.04 µM) | relative viability (Decitabine + Tozasertib; first compound 0.1265 µM) | relative viability (Decitabine + Tozasertib; first compound 0.4 µM) | relative viability (Decitabine + Tozasertib; first compound 1.265 µM) | relative viability (Decitabine + Tozasertib; first compound 4 µM) |
| --- | --- | --- | --- | --- | --- | --- | --- | --- | --- | --- | --- | --- | --- | --- | --- | --- | --- | --- | --- | --- |
| NCI-H1944 | 0.787 | 0.859 | 0.627 | 0.45 | 0.387 | 0.565 | 0.536 | 0.519 | 0.477 | 0.513 | 1.04 | 1.06 | 1.02 | 1.05 | 1.01 | 0.234 | 0.268 | 0.22 | 0.201 | 0.186 |
| LK-2 |  | 0.219 | 0.262 | 0.265 | 0.219 | 0.331 | 0.292 | 0.292 | 0.353 | 0.254 | 0.78 | 0.979 | 0.81 | 0.931 | 0.603 | 0.168 | 0.166 | 0.182 | 0.155 | 0.19 |
| NCI-H441 | 0.361 | 0.224 | 0.223 | 0.188 | 0.184 | 0.799 | 0.936 | 0.863 | 0.8 | 0.49 | 0.607 | 0.674 | 0.562 | 0.586 | 0.34 | 0.296 | 0.269 | 0.208 | 0.234 | 0.317 |
| NCI-H23 | 0.338 | 0.373 | 0.21 | 0.175 | 0.163 | 0.664 | 0.521 | 0.559 | 0.553 | 0.534 | 0.893 | 0.966 | 0.795 | 0.798 | 0.377 | 0.256 | 0.199 | 0.152 | 0.195 | 0.172 |
| NCI-H647 | 0.852 | 0.704 | 0.549 | 0.211 | 0.174 | 0.833 | 0.499 | 0.489 | 0.453 | 0.103 | 1.15 | 1.09 | 1.13 | 0.829 | 0.415 | 0.262 | 0.192 | 0.172 | 0.0834 | 0.105 |
| 201T | 1.02 | 1 | 1.15 | 0.965 | 0.914 | 1.01 | 0.971 | 0.964 | 0.909 | 0.776 | 1.22 | 1.15 | 1.24 | 1.13 | 1.28 | 0.742 | 0.776 | 0.909 |  | 0.587 |
| NCI-H1734 | 0.515 | 0.603 | 0.593 | 0.396 | 0.304 | 0.891 | 0.9 | 0.838 | 0.753 | 0.607 | 0.825 | 0.961 | 0.799 | 0.762 | 0.378 | 0.265 | 0.246 | 0.221 | 0.206 | 0.192 |
| NCI-H596 | 0.939 | 1.02 | 0.353 | 0.772 | 0.755 | 0.628 | 0.502 | 0.58 | 0.648 | 0.562 | 0.911 | 0.912 | 0.997 | 1 | 0.606 | 0.733 | 0.87 |  | 0.526 | 0.466 |
